In US9776995B2, “Bicyclic sulfonamide compounds as sodium channel inhibitors” (AMGEN INC., priority 2013, dated 2017) one finds IC50 data, which are given here for 29 compounds.

In general, IC50 refers to the concentration that inhibits the measured activity by half.

Series [1] concerns the target Nav 1.7 (Homo sapiens (Human), UniProt Q15858). The series can be described thus: in-vitro Nav 1.7 PX data. It is filed as cell-based.
Series [2] concerns the target Nav 1.5 (Homo sapiens (Human), UniProt Q14524). The series can be described thus: in-vitro Nav 1.5 PX data. The conditions noted are these: read-out: Nav 1.5 PX IC50.

Like-named read-outs stand apart in the source and are kept apart here. Bounds are passed on as bounds.

Chain of Nav 1.5 (Q14524 whole entry): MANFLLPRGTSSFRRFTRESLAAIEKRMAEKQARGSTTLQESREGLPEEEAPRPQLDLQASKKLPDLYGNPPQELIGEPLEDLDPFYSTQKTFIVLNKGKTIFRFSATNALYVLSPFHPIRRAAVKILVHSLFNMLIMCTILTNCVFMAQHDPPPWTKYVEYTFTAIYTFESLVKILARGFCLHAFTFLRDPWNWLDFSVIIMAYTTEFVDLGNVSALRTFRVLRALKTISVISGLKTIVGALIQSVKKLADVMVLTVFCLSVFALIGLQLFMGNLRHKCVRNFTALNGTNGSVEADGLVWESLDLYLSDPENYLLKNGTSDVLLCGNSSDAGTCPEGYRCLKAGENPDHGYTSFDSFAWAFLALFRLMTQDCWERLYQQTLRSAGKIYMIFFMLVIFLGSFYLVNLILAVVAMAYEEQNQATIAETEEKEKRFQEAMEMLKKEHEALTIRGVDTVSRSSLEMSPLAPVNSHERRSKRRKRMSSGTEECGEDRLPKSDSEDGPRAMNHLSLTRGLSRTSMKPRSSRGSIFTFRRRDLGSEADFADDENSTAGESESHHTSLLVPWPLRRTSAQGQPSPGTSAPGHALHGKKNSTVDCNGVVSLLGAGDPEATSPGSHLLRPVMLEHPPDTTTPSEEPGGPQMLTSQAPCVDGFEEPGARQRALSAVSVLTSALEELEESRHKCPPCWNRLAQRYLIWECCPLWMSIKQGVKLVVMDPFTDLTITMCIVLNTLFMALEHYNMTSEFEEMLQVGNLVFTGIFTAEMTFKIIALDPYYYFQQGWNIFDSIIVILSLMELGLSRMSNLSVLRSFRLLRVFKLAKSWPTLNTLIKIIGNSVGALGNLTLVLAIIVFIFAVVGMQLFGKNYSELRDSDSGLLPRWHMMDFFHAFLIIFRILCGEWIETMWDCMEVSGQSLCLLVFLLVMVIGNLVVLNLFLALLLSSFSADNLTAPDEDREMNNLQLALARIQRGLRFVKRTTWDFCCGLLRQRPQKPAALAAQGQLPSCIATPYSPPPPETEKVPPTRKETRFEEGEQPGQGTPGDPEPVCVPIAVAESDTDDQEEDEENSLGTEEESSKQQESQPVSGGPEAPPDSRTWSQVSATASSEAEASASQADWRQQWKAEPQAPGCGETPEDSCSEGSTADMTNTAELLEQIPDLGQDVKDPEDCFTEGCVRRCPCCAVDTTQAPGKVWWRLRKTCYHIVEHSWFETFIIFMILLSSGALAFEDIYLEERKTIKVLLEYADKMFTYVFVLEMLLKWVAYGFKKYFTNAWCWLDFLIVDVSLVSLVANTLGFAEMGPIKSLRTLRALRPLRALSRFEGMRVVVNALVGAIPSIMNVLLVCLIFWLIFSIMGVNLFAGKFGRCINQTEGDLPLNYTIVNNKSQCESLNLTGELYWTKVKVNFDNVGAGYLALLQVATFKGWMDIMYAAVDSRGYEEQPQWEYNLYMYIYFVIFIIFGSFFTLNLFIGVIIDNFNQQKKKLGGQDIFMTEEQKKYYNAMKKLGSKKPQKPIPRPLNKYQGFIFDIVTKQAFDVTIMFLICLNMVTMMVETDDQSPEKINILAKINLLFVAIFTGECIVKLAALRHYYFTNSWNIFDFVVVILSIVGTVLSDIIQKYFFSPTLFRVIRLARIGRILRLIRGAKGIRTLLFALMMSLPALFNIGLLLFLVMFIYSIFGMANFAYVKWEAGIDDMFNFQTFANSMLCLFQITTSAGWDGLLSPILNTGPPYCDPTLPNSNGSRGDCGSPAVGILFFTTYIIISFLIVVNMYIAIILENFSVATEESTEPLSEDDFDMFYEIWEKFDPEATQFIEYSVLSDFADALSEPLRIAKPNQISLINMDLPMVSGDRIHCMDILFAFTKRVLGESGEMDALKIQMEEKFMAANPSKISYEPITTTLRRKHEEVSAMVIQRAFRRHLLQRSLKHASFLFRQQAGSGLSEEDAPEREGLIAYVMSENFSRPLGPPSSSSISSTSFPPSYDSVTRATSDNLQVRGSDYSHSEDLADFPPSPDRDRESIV
Chain of Nav 1.7 (Q15858 whole entry): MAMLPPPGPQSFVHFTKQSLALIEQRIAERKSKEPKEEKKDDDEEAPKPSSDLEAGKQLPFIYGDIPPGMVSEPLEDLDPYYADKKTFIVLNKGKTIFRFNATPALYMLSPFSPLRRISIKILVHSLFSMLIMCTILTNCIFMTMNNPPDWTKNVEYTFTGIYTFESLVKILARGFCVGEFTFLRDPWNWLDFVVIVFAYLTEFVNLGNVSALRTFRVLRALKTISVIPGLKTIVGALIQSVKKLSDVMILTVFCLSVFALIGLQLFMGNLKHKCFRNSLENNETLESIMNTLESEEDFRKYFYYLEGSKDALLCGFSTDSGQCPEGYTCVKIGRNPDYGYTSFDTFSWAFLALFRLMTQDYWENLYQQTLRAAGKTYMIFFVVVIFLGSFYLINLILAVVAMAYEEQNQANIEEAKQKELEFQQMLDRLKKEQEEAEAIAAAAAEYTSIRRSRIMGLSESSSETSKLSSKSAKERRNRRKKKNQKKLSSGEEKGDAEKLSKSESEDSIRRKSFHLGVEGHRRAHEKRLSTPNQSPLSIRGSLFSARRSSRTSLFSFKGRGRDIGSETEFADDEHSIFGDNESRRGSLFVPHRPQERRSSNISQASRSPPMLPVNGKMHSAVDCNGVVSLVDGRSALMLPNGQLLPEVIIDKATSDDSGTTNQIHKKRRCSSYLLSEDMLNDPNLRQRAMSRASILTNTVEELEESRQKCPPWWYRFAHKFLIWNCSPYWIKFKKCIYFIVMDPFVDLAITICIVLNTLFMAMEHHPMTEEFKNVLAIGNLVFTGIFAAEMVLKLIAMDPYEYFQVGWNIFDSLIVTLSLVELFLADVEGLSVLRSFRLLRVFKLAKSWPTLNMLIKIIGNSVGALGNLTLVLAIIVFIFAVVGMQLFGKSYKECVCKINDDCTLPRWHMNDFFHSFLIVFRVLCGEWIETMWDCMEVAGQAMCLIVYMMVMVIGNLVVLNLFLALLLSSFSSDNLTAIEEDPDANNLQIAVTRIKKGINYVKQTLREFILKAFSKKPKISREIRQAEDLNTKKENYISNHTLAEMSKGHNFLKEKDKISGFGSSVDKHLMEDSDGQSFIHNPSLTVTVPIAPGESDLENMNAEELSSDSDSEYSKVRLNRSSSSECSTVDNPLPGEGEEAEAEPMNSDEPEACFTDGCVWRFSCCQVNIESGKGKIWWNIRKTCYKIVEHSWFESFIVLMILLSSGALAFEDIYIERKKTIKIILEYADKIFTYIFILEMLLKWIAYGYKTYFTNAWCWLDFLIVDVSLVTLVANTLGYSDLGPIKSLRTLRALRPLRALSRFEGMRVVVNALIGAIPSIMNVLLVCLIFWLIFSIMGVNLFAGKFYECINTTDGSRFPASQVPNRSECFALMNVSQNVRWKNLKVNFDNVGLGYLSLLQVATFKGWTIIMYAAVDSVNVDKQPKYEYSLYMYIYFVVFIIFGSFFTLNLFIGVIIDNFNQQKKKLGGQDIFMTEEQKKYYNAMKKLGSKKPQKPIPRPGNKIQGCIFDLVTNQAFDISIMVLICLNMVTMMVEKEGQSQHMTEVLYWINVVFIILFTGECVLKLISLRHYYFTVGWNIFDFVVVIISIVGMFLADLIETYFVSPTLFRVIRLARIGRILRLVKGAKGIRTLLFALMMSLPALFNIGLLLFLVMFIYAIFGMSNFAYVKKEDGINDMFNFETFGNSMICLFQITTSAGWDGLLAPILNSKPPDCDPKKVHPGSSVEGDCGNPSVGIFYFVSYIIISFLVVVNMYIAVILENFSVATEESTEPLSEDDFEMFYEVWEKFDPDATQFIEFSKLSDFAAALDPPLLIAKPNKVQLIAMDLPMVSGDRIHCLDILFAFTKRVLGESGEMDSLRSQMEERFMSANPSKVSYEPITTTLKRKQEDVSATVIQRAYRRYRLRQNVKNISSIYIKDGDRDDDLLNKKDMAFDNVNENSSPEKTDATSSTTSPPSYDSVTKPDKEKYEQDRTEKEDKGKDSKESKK

With `COc1cc(Oc2cccc(C)c2)ccc1-c1nccc2cc(S(=O)(=O)Nc3ccncn3)ccc12` [Example 181, 1-(2-methoxy-4-(3-methylphenoxy)phenyl)-N-4-pyrimidinyl-6-isoquinolinesulfonamide], the IC50 was 126 nM in series [1] (in-vitro PX (PatchXpress) data) and > 10000 nM in series [2] (in-vitro PX (PatchXpress) data).
Taken in the same sequence, the figures for `COc1ccc(Oc2ccc(-c3nccc4cc(S(=O)(=O)Nc5ccncn5)ccc34)c(OC)c2)cc1` [Example 182, 1-(2-methoxy-4-(4-methoxyphenoxy)phenyl)-N-4-pyrimidinyl-6-isoquinolinesulfonamide] were 305 nM and > 10000 nM.
Taken in the same sequence, the figures for `COc1cccc(Oc2ccc(-c3nccc4cc(S(=O)(=O)Nc5ccncn5)ccc34)c(OC)c2)c1` [Example 183, 1-(2-methoxy-4-(3-methoxyphenoxy)phenyl)-N-4-pyrimidinyl-6-isoquinolinesulfonamide] were 203 nM and > 10000 nM.
In the same order, the values of `COc1cc(-c2cccc(C(F)(F)F)c2)c(C#N)cc1-c1nccc2cc(S(=O)(=O)Nc3ccncn3)ccc12` [Example 184, 1-(2-cyano-5-methoxy-3′-(trifluoromethyl)-4-biphenylyl)-N-4-pyrimidinyl-6-isoquinolinesulfonamide] are 36.3 nM and > 30000 nM.
As to `COc1cc(-c2ccc(C(F)(F)F)cc2)c(C#N)cc1-c1nccc2cc(S(=O)(=O)Nc3ccncn3)ccc12` [Example 185, 1-(2-cyano-5-methoxy-4′-(trifluoromethyl)-4-biphenylyl)-N-4-pyrimidinyl-6-isoquinolinesulfonamide], the figures for the concentration for half-maximal inhibition (IC50) in series [1] (in-vitro PX (PatchXpress) data) and in series [2] (in-vitro PX (PatchXpress) data) were 56 nM and 20700 nM, respectively.
Regarding `COc1cc(-c2ccc(F)cc2)c(C#N)cc1-c1nccc2cc(S(=O)(=O)Nc3ccncn3)ccc12` [Example 186, 1-(2-cyano-4′-fluoro-5-methoxy-4-biphenylyl)-N-4-pyrimidinyl-6-isoquinolinesulfonamide], the IC50 in series [1] (in-vitro PX (PatchXpress) data) was 150 nM; in series [2] (in-vitro PX (PatchXpress) data) it was > 10000 nM.
Taken in the same sequence, the figures for `COc1cc(Oc2cc(F)ccc2F)ccc1-c1nccc2cc(S(=O)(=O)Nc3nncs3)ccc12` [Example 187, 1-(4-(2,5-difluorophenoxy)-2-methoxyphenyl)-N-1,3,4-thiadiazol-2-yl-6-isoquinolinesulfonamide] were 99.4 nM and > 10000 nM.
Taken in the same sequence, the figures for `COc1cc(-c2cc(C)cnc2OC)ccc1-c1nccc2cc(S(=O)(=O)Nc3nncs3)ccc12` [Example 188, 1-(2-methoxy-4-(2-methoxy-5-methyl-3-pyridinyl)phenyl)-N-1,3,4-thiadiazol-2-yl-6-isoquinolinesulfonamide] were 215 nM and > 30000 nM.
Taken in the same sequence, the figures for `COc1cc(-c2ccc(-c3nccc4cc(S(=O)(=O)Nc5nncs5)ccc34)c(OC)c2)c(F)cn1` [Example 189, 1-(4-(5-fluoro-2-methoxy-4-pyridinyl)-2-methoxyphenyl)-N-1,3,4-thiadiazol-2-yl-6-isoquinolinesulfonamide] were 394 nM and > 30000 nM.
Turning to `COc1cc(Oc2cc(C)ccc2F)ccc1-c1nccc2cc(S(=O)(=O)Nc3nncs3)ccc12` [Example 190, 1-(4-(2-fluoro-5-methylphenoxy)-2-methoxyphenyl)-N-1,3,4-thiadiazol-2-yl-6-isoquinolinesulfonamide], the half-inhibitory concentration (IC50) is 243 nM in series [1] (in-vitro PX (PatchXpress) data) and > 10000 nM in series [2] (in-vitro PX (PatchXpress) data).
Taken in the same sequence, the figures for `COc1cc(Oc2ccc(C)c(F)c2)ccc1-c1nccc2cc(S(=O)(=O)Nc3nncs3)ccc12` [Example 194, 1-(4-(3-fluoro-4-methylphenoxy)-2-methoxyphenyl)-N-1,3,4-thiadiazol-2-yl-6-isoquinolinesulfonamide] were 133 nM and > 10000 nM.
Taken in the same sequence, the figures for `COc1cc(-c2ccc(F)c(F)c2)c(C#N)cc1-c1nccc2cc(S(=O)(=O)Nc3ccncn3)ccc12` [Example 197, 1-(2-cyano-3′,4′-difluoro-5-methoxy-4-biphenylyl)-N-4-pyrimidinyl-6-isoquinolinesulfonamide] were 76 nM and > 10000 nM.
Taken in the same sequence, the figures for `COc1cc(-c2cc(F)cnc2OC)c(C)cc1-c1ncnc2cc(S(=O)(=O)Nc3ccon3)ccc12` [Example 198, 4-(4-(5-fluoro-2-methoxy-3-pyridinyl)-2-methoxy-5-methylphenyl)-N-3-isoxazolyl-7-quinazolinesulfonamide] were 183 nM and > 10000 nM.
As to `COc1cc(-c2ccc(F)c(F)c2)c(C)cc1-c1ncnc2cc(S(=O)(=O)Nc3ccon3)ccc12` [Example 199, 4-(3′,4′-difluoro-5-methoxy-2-methyl-4-biphenylyl)-N-3-isoxazolyl-7-quinazolinesulfonamide], the IC50 in series [1] (in-vitro PX (PatchXpress) data) is 36 nM; in series [2] (in-vitro PX (PatchXpress) data), > 10000 nM.
In the same order, the values of `COc1cc(-c2cc(F)cnc2OC)c(C#N)cc1-c1ncnc2cc(S(=O)(=O)Nc3ccon3)ccc12` [Example 201, 4-(5-cyano-4-(5-fluoro-2-methoxy-3-pyridinyl)-2-methoxyphenyl)-N-3-isoxazolyl-7-quinazolinesulfonamide] are 424 nM and > 10000 nM.
Taken in the same sequence, the figures for `COc1cc(-c2cc(F)cc(F)c2)c(C#N)cc1-c1ncnc2cc(S(=O)(=O)Nc3ccon3)ccc12` [Example 202, 4-(2-cyano-3′,5′-difluoro-5-methoxy-4-biphenylyl)-N-3-isoxazolyl-7-quinazolinesulfonamide] were 46 nM and > 10000 nM.
Taken in the same sequence, the figures for `COc1cc(-c2cccc(F)c2)c(C#N)cc1-c1ncnc2cc(S(=O)(=O)Nc3ccon3)ccc12` [Example 203, 4-(2-cyano-3′-fluoro-5-methoxy-4-biphenylyl)-N-3-isoxazolyl-7-quinazolinesulfonamide] were 28.8 nM and > 10000 nM.
With `N#CCOc1cc(-c2cccc(F)c2)ccc1-c1nccc2cc(S(=O)(=O)Nc3ccncn3)ccc12` [Example 208, 1-(3-(cyanomethoxy)-3′-fluoro-4-biphenylyl)-N-4-pyrimidinyl-6-isoquinolinesulfonamide], the IC50 was 230 nM in series [1] (in-vitro PX) and > 30000 nM in series [2] (in-vitro PX).
In the same order, the values of `COc1cc(-c2cc(F)cnc2OC)ccc1-c1ccnc2cc(S(=O)(=O)Nc3nncs3)ccc12` [Example 209, 4-(4-(5-fluoro-2-methoxy-3-pyridinyl)-2-methoxyphenyl)-N-1,3,4-thiadiazol-2-yl-7-quinolinesulfonamide] are 328 nM and > 10000 nM.
Taken in the same sequence, the figures for `COc1cc(-c2cccc(C(F)(F)F)c2)c(C#N)cc1-c1ncnc2cc(S(=O)(=O)Nc3ccon3)ccc12` [Example 211, 4-(2-cyano-5-methoxy-3′-(trifluoromethyl)-4-biphenylyl)-N-3-isoxazolyl-7-quinazolinesulfonamide] were 16.9 nM and > 10000 nM.
Taken in the same sequence, the figures for `COc1cc(-c2cccc(F)c2)c(Cl)cc1-c1nn(C)c(=O)c2cc(S(=O)(=O)Nc3nncs3)ccc12` [Example 215, 1-(2-chloro-3′-fluoro-5-methoxy-4-biphenylyl)-3-methyl-4-oxo-N-1,3,4-thiadiazol-2-yl-3,4-dihydro-6-phthalazinesulfonamide] were 82.3 nM and > 10000 nM.
In the case of `COc1cc(-c2cc(F)cc(F)c2)c(C#N)cc1-c1ncnc2cc(S(=O)(=O)Nc3nncs3)ccc12` [Example 216, 4-(2-cyano-3′,5′-difluoro-5-methoxy-4-biphenylyl)-N-1,3,4-thiadiazol-2-yl-7-quinazolinesulfonamide], the IC50 in series [1] (in-vitro PX) was 45.6 nM; in series [2] (in-vitro PX) it was > 10000 nM.
Taken in the same sequence, the figures for `COc1cc(-c2cccc(C)c2)c(C#N)cc1-c1nccc2cc(S(=O)(=O)Nc3nncs3)ccc12` [Example 217, 1-(2-cyano-5-methoxy-3′-methyl-4-biphenylyl)-N-1,3,4-thiadiazol-2-yl-6-isoquinolinesulfonamide] were 22.3 nM and > 10000 nM.
Turning to `COc1cc(-c2ccc(C)c(F)c2)c(C#N)cc1-c1nccc2cc(S(=O)(=O)Nc3nncs3)ccc12` [Example 218, 1-(2-cyano-3′-fluoro-5-methoxy-4′-methyl-4-biphenylyl)-N-1,3,4-thiadiazol-2-yl-6-isoquinolinesulfonamide], the results for the half-maximal inhibitory concentration (IC50) in series [1] (in-vitro PX) and in series [2] (in-vitro PX) were 22.9 nM and > 10000 nM, respectively.
In the same order, the values of `COc1cc(-c2ccc(F)cc2)c(C#N)cc1-c1nccc2cc(S(=O)(=O)Nc3nncs3)ccc12` [Example 219, 1-(2-cyano-4′-fluoro-5-methoxy-4-biphenylyl)-N-1,3,4-thiadiazol-2-yl-6-isoquinolinesulfonamide] are 33.8 nM and > 10000 nM.
Taken in the same sequence, the figures for `COc1cc(-c2cc(C)cc(F)c2)c(C#N)cc1-c1nccc2cc(S(=O)(=O)Nc3nncs3)ccc12` [Example 222, 1-(2-cyano-3′-fluoro-5-methoxy-5′-methyl-4-biphenylyl)-N-1,3,4-thiadiazol-2-yl-6-isoquinolinesulfonamide] were 21.8 nM and > 10000 nM.
Taken in the same sequence, the figures for `COc1cc(-c2cccc(C(F)(F)F)c2)c(C#N)cc1-c1ncnc2cc(S(=O)(=O)Nc3nncs3)ccc12` [Example 226, 4-(2-cyano-5-methoxy-3′-(trifluoromethyl)-4-biphenylyl)-N-1,3,4-thiadiazol-2-yl-7-quinazolinesulfonamide] were 11.6 nM and > 10000 nM.
In the case of `COc1cc(-c2ccc(C)c(Cl)c2)c(C#N)cc1-c1nccc2cc(S(=O)(=O)Nc3nncs3)ccc12` [Example 229, 1-(3′-chloro-2-cyano-5-methoxy-4′-methyl-4-biphenylyl)-N-1,3,4-thiadiazol-2-yl-6-isoquinolinesulfonamide], the 50% inhibitory concentration (IC50) is 20.5 nM in series [1] (in-vitro PX) and > 10000 nM in series [2] (in-vitro PX).
In the same order, the values of `COc1cc(-c2ccc(F)c(C)c2)c(C#N)cc1-c1nccc2cc(S(=O)(=O)Nc3nncs3)ccc12` [Example 230, 1-(2-cyano-4′-fluoro-5-methoxy-3′-methyl-4-biphenylyl)-N-1,3,4-thiadiazol-2-yl-6-isoquinolinesulfonamide] are 12.7 nM and > 10000 nM.
